Data taken from article PMC9238401, “Peptide Conjugates Derived from flg15, Pep13, and PIP1 That Are Active against Plant-Pathogenic Bacteria and Trigger Plant Defense Responses” (Applied and Environmental Microbiology, 2022).
Non-standard residues stand in square brackets, D forms with d. Residues, ends and D or L forms follow the SMILES beside them. *: point of attachment. Butyryl = CCCC(=O)*

What was measured:
tobacco leaves = test: Effect of peptide infiltration on tobacco leaves (phytotoxicity); assay type: in vivo
In short: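 Phytotoxicity was scored as necrotic lesion diameter 48 h post-infiltration. Each peptide was infiltrated at 50, 150 or 250 μM into fully expanded tobacco leaf mesophyll, on ≥3 leaves from different plants, alongside water and same-molar melittin controls.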

[1] = tested on: Erwinia amylovora PMV6076; test: In vitro growth inhibition (MIC); assay type: cell-based; conditions: TSB, 25°C, 48 h, OD 600 nm (Bioscreen C), three replicates, experiment repeated twice; MIC = lowest concentration with no growth, given as range
In short: (§1)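 Strains were grown 24 h at 25°C on agar, then suspended in sterile water at 10^8 CFU mL^−1 and mixed with peptide dilutions in Trypticase soy broth. Plates were incubated at 25°C with shaking and OD600 read hourly for 48 h. MIC is the lowest concentration with no growth at 48 h.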

[2] = tested on: Xanthomonas arboricola pv. pruni CFBP5563; test: In vitro growth inhibition (MIC); assay type: cell-based; conditions: TSB, 25°C, 48 h, OD 600 nm (Bioscreen C), three replicates, experiment repeated twice; MIC given as range
In short: as §1

[3] = tested on: Pseudomonas syringae pv. syringae EPS94; test: In vitro growth inhibition (MIC); assay type: cell-based; conditions: TSB, 25°C, 48 h, OD 600 nm (Bioscreen C), three replicates, experiment repeated twice; MIC given as range
In short: as §1

[4] = tested on: Xanthomonas fragariae Xf349-9A; test: In vitro growth inhibition (MIC); assay type: cell-based; conditions: TSB, 25°C, 48 h, OD 600 nm (Bioscreen C), three replicates, experiment repeated twice; MIC given as range
In short: as §1

[5] = tested on: Pseudomonas syringae pv. actinidiae Psa3700.1.1; test: In vitro growth inhibition (MIC); assay type: cell-based; conditions: TSB, 25°C, 48 h, OD 600 nm (Bioscreen C), three replicates, experiment repeated twice; MIC given as range
In short: as §1

[6] = tested on: Xanthomonas axonopodis pv. vesicatoria 2133-2; conditions: TSB, 25°C, 48 h, OD 600 nm (Bioscreen C), three replicates, experiment repeated twice; MIC given as range
In short: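 Bacteria grown 24 h (48 h for Xanthomonas axonopodis, X. fragariae) at 25°C, suspended at 10^8 CFU mL^−1, mixed with peptide dilutions in TSB.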

[7] = 100 μL infiltrated into mesophyll, lesion diameter 48 h after infiltration, at least three leaves, ± confidence interval (α = 0.05)

Row | Molecule | Size of the lesions in infiltrated tobacco leaves at 50 μM (tobacco leaves; [7]) | Size of the lesions in infiltrated tobacco leaves at 150 μM (tobacco leaves; [7]) | Size of the lesions in infiltrated tobacco leaves at 250 μM (tobacco leaves; [7]) | MIC, Ea [1] | MIC, Xap [2] | MIC, Pss [3] | MIC, Xf [4] | MIC, Psa [5] | MIC, Xav [6] | Size of the lesions in infiltrated tobacco leaves at 50 μM (tobacco leaves; in vivo) | Size of the lesions in infiltrated tobacco leaves at 150 μM (tobacco leaves; in vivo) | Size of the lesions in infiltrated tobacco leaves at 250 μM (tobacco leaves; in vivo)
1 | CCCC(=O)NCCCC[C@H](NC(=O)[C@H](CCCCN)NC(=O)[C@H](CC(C)C)NC(=O)[C@@H](NC(=O)[C@H](CCCCN)NC(=O)[C@H](CCCCN)NC(=O)[C@@H](Cc1ccccc1)NC(=O)[C@H](CC(C)C)NC(=O)[C@H](CCCCN)NC(=O)[C@H](CCCCN)NC(=O)[C@H](C)NC(=O)[C@@H](NC(=O)[C@H](CCC(N)=O)NC(=O)[C@H](CC(C)C)NC(=O)CNC(=O)[C@H](C)NC(=O)[C@H](C)NC(=O)[C@H](CC(=O)O)NC(=O)[C@H](CC(=O)O)NC(=O)[C@H](CCCCN)NC(=O)[C@H](C)NC(=O)[C@H](CO)NC(=O)[C@H](CC(N)=O)NC(=O)[C@@H](NC(=O)[C@H](CCCNC(=N)N)NC(C)=O)[C@@H](C)CC)[C@@H](C)CC)[C@@H](C)CC)C(=O)N[C@@H](CC(C)C)C(N)=O [flg15-BP475] (Ac-RINSAKDDAAGLQIAKKL[dF]KKILKK(Butyryl)L-NH2) | 0.60 ± 0 cm | 1.20 ± 0 cm | 1.37 ± 0.06 cm | 3.1 to 6.2 µM | < 0.8 µM | 12.5 to 25 µM | 6.2 to 12.5 µM | 3.1 to 6.2 µM | < 0.8 µM |  |  | 
2 | RINSAKDDAAGLQIA-OH [flg15] | 0 ± 0 cm | 0 ± 0 cm | 0 ± 0 cm | > 100 µM | > 100 µM | > 100 µM | > 100 µM | > 100 µM | > 100 µM |  |  | 
3 | YGIHTH-NH2 [PIP1] |  |  |  | > 50 µM | > 50 µM | > 50 µM | > 50 µM | > 50 µM | > 50 µM | 0 ± 0 cm | 0 ± 0 cm | 0 ± 0 cm
4 | CCCC(=O)NCCCC[C@H](NC(=O)[C@H](CCCCN)NC(=O)[C@H](CC(C)C)NC(=O)[C@@H](NC(=O)[C@H](CCCCN)NC(=O)[C@H](CCCCN)NC(=O)[C@@H](Cc1ccccc1)NC(=O)[C@H](CC(C)C)NC(=O)[C@H](CCCCN)NC(=O)[C@H](CCCCN)NC(=O)[C@H](Cc1c[nH]cn1)NC(=O)[C@@H](NC(=O)[C@H](Cc1c[nH]cn1)NC(=O)[C@@H](NC(=O)CNC(=O)[C@H](Cc1ccc(O)cc1)NC(C)=O)[C@@H](C)CC)[C@@H](C)O)[C@@H](C)CC)C(=O)N[C@@H](CC(C)C)C(N)=O [PIP1-BP475] (Ac-YGIHTHKKL[dF]KKILKK(Butyryl)L-NH2) | 0.47 ± 0.13 cm | 1.03 ± 0.06 cm | 1.17 ± 0.06 cm | 3.1 to 6.2 µM | < 0.8 µM | 3.1 to 6.2 µM | 12.5 to 25 µM | 1.6 to 3.1 µM | < 0.8 µM |  |  | 
